By EC50 is commonly meant the concentration that produces a half-maximal response.

This passage reports EC50 results from patent US20250051355A1, “COMPOUNDS, COMPOSITIONS, AND METHODS” (ACONCAGUA BIO, INC., priority 2023, published 2025).

For assay [1], the target named is human calcitonin receptor (CTR) and RAMP3 (AMY3) (Homo sapiens, UniProt O60896+P30988). Nature of the assay: Amylin Receptor cAMP Assay I. The note with it: COS-7/AMY3 cells, cAMP Hi-range Kit, read-out: Amylin Receptor cAMP Stimulation Activity: EC50. In kind it is cell-based. From the text:
Amylin Receptor cAMP Assay I
AMYRs are heterodimers of the class B calcitonin (CT) G-protein-coupled receptor (CTR) and receptor activity-modifying proteins (RAMPs). All three RAMPs can interact with the CTR and form AMY1, AMY2, AMY3 with RAMP1, RAMP2 and RAMP3, respectively. Like other class B1 GPCRs, the CT receptor family is canonically coupled to Gs-mediated cAMP production, and measurement of cAMP accumulation has been the primary assay used to determine peptide selectivity and potency.
To optimize functional activity directed toward Gas coupling, COS-7 cells were stably transfected with human calcitonin receptor (CTR) and RAMP3, simultaneously. 100×concentration of compound working solutions were prepared (Agilent Technologies Bravo) with 4-fold serial dilution in 384-well Echo LDV plate (Labcyte, Cat #LP-0200). 100 nL/well 100× concentration of compound working solutions were moved to 384-well white low volume plate (Greiner, Cat #784075) using Labcyte ECHO550. 1×10^5 cells/mL COS-7/CTR or COS-7/AMY3 (HD Biosciences) cell suspensions prepared with assay buffer [DPBS containing 0.5 mM IBMX (Sigma, Cat #15879) and 0.1% BSA (GENVIEW, Cat #FAO16-100 g)], 10 μL cell suspensions were added to each well of previous generated assay plate which already contains 100 nL compound at 100× concentration using ThermoFisher Multidrop Combi (1000 cells/well). Seal the plate and incubate at 37° C. with 5% CO2 for 30 min.
After incubation, the cAMP assay signal was generated using cAMP Hi-range Kit (Cisbio). 5 μL cAMP-d2 working solution was added to each well, followed by 5 μL Anti-cAMP antibody-cryptate working solution which was added to each well using ThermoFisher Multidrop Combi. The samples were then incubated at room temperature for 1 hour protected from light. the fluorescence was read at 665 and 615 nm with Reader PerkinElmer EnVision.

Assay [2] concerns the target T1, human calcitonin receptor (CTR) (Homo sapiens, UniProt P30988).
T1 construct: expressed in transfected cells; host or cells: COS-7 (COS7-human CTR Clone #2)
T1 sequence (P30988 25-474): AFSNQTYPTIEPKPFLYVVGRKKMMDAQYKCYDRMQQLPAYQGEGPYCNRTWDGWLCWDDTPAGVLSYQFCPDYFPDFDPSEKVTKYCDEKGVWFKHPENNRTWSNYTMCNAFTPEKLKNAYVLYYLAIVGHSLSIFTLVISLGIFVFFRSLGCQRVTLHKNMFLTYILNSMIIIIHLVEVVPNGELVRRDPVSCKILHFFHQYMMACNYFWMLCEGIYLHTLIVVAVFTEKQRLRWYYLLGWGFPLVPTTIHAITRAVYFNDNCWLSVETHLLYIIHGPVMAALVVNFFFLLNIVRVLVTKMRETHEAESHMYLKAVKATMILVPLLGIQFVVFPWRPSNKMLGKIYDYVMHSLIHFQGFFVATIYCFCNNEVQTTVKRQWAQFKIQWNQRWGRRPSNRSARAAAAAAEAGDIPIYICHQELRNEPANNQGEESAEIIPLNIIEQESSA
Nature of the assay: Calcitonin receptor (CTR) cAMP Assay. In kind it is cell-based. The note with it: COS7-human CTR Clone #2 cells, cAMP dynamic 2 kit; read-out: Calcitonin Receptor cAMP Stimulation Activity: EC50. Put shortly: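 COS-7 cells stably expressing human CTR (2000 cells/well) treated with 4-fold serially diluted compounds in HBSS/20 mM HEPES/0.5 mM IBMX/0.1% casein, 30 min at 37° C. cAMP quantified by HTRF (cAMP-d2 plus anti-cAMP cryptate, 1 h RT), fluorescence read at 665 and 615 nm.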

Structures are written as SMILES.

Chain of human calcitonin receptor (CTR) and RAMP3 (AMY3) (O60896 24-148, one chain of several): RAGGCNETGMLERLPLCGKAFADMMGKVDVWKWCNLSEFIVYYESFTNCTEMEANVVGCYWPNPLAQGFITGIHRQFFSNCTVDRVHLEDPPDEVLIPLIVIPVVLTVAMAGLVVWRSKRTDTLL

Take `Cc1nnc(-c2c(CCc3ccc(F)cc3)nc3c(c2-c2ccc(C(=O)NCc4ccc(F)c(F)c4)s2)C(=O)N[C@@H]3C(C)C)o1` [Compound 2, N-(3,4-difluorophenyl)methyl-5-((R)-5-[2-(p-fluorophenyl)ethyl]-3-isopropyl-6-(5-methyl-1,3,4-oxadiazol-2-yl)-1-oxo-2,4-diaza-7-indanyl}-2-thenamide]: the EC50 in assay [1] came out at 33.3 nM; in assay [2] it was 7 nM. Taken in the same sequence, the figures for `Cc1nnc(-c2c(CCC3CCOCC3)nc3c(c2-c2ccc(C(=O)NCc4ccc(F)c(F)c4)s2)C(=O)N2CCC[C@@H]32)o1` [Compound 29] were 128 nM and 31 nM. Taken in the same sequence, the figures for `Cc1nnc(-c2c(CCc3ccc(F)cc3)nc3c(c2-c2ccc(C(=O)NCc4ccc(F)c(F)c4)s2)C(=O)N2CCC[C@@H]32)o1` [Compound 4, (S)—N-(3,4-difluorobenzyl)-5-(2-(4-fluorophenethyl)-3-(5-methyl-1,3,4-oxadiazol-2-yl)-5-oxo-7,8,9,9a-tetrahydro-5H-pyrido[2,3-a]pyrrolizin-4-yl)thiophene-2-carboxamide] were 47.5 nM and 4.5 nM. With `Cc1nnc(-c2c(CC(C)c3ccc(F)cc3)nc3c(c2-c2ccc(C(=O)NCc4ccc(F)c(F)c4)s2)C(=O)N2CCC[C@@H]32)o1` (stereo partly drawn) [Compound 9, N-(3,4-difluorobenzyl)-5-((9aS)-2-(2-(4-fluorophenyl)propyl)-3-(5-methyl-1,3,4-oxadiazol-2-yl)-5-oxo-7,8,9,9a-tetrahydro-5H-pyrido[2,3-a]pyrrolizin-4-yl)thiophene-2-carboxamide], the EC50 in assay [1] is 53.3 nM; in assay [2], 15 nM. As to `Cc1nnc(-c2c(CCC3CCOCC3)nc3c(c2-c2cc4ccnc(NCc5cccc(F)c5)c4s2)C(=O)N2CCC[C@@H]32)o1` [Compound 70], the figures for the EC50 in assay [1] and in assay [2] were 811 nM and 45 nM, respectively.

Consider `COc1cccc2c1CC[C@H]2NC(=O)c1ccc(-c2c3c(nc(CCc4ccc(F)cc4)c2-c2nnc(C)o2)[C@H](C(C)C)NC3=O)s1` [Compound 3, N—[(R)-4-methoxy-1-indanyl]-5-{(S)-5-[2-(p-fluorophenyl)ethyl]-3-isopropyl-6-(5-methyl-1,3,4-oxadiazol-2-yl)-1-oxo-2,4-diaza-7-indanyl)-2-thenamide], for which the EC50 in assay [1] turned out to be 70.2 nM.

On to `Cc1nnc(-c2c(CCC3CCOCC3)nc3c(c2-c2cc4ccnc(N[C@@H]5CCc6cc(F)ccc65)c4s2)C(=O)N2CCC[C@@H]32)o1` [Compound 71], for which the EC50 in assay [1] was 27.8 nM. Turning to `Cc1nnc(-c2c(COC3CCCCC3)nc3c(c2-c2ccc(C(=O)NCc4ccc(F)c(F)c4)s2)C(=O)N2CCC[C@@H]32)o1` [Compound 25], the EC50 in assay [1] turned out to be 512 nM. Regarding `Cc1nnc(-c2c(CCc3ccc(F)cn3)nc3c(c2-c2ccc(C(=O)NCc4ccc(F)c(F)c4)s2)C(=O)N2CCC[C@@H]32)o1` [Compound 8, (S)—N-(3,4-difluorobenzyl)-5-(2-(2-(5-fluoropyridin-2-yl)ethyl)-3-(5-methyl-1,3,4-oxadiazol-2-yl)-5-oxo-7,8,9,9a-tetrahydro-5H-pyrido[2,3-a]pyrrolizin-4-yl)thiophene-2-carboxamide], the EC50 in assay [1] came out at 3590 nM. On the same count and under the same terms, for `Cc1cnc(-c2c(CCC3CCOCC3)nc3c(c2-c2ccc(C(=O)NCc4ccc(F)c(F)c4)s2)C(=O)N2CCC[C@@H]32)o1` [Compound 57] the value was 113 nM. On the same count and under the same terms, with `Cc1nnc(-c2c(CCc3ccc(F)cc3)nc3c(c2-c2cc4ccnc(NCc5ccc(F)c(F)c5)c4s2)C(=O)N2CCCC32O)o1` (centres unmarked) [Compound 53] the figure was 13.1 nM; with `COc1cccc2c1CC[C@H]2Nc1nccc2cc(-c3c4c(nc(CCC5CCOCC5)c3-c3nnc(C)o3)[C@@H]3CCCN3C4=O)sc12` [Compound 83, (2S,6R)-9-(7-[(R)-4-methoxy-1-indanylamino]-1-thia-6-aza-2-indenyl}-10-(5-methyl-1,3,4-oxadiazol-2-yl)-11-[2-(tetrahydro-2H-pyran-4-yl)ethyl]-6,12-diazatricyclo[6.4.0.0^2,6,]dodeca-1(8), 9,11-trien-7-one], 59 nM.

Take `Cc1ccc(CCc2nc3c(c(-c4ccc(C(=O)NCc5ccc(F)c(F)c5)s4)c2-c2nnc(C)o2)C(=O)N2CCC[C@@H]32)cn1` [Compound 22]: the EC50 in assay [1] came to 1130 nM.

For `Cc1nnc(-c2c(CC(F)c3ccc(F)cc3)nc3c(c2-c2ccc(C(=O)N[C@@H]4CCc5ccccc54)s2)C(=O)N2CCC[C@@H]32)o1` (some centres unmarked) [Compound 52], in assay [1], the EC50 amounted to 126 nM. On the same count and under the same terms, for `Cc1nnc(-c2c(CCc3ccc(F)cc3)nc3c(c2-c2ccc(C(=O)N[C@@H]4CCc5ncccc54)s2)C(=O)N2CCC[C@@H]32)o1` [Compound 28] the value was 315 nM. As to `Cc1cnc(-c2c(CCc3ccc(F)cc3)nc3c(c2-c2cc4ccnc(NCc5ccc(F)c(F)c5)c4s2)C(=O)N2CCC[C@@H]32)o1` [Compound 41], the EC50 in assay [1] is 22.8 nM. Still for that read-out and setting: for `CO[C@@H]1C[C@@H](NC(=O)c2ccc(-c3c4c(nc(CCc5ccc(F)cc5)c3-c3nnc(C)o3)[C@@H]3CCCN3C4=O)s2)c2ccccc21` (stereo in doubt) [Compound 48] the value was 321 nM. For the compound `Cc1nnc(-c2c(CCc3ccc(F)cc3)nc3c(c2-c2ccc(C(=O)NC4CC(O)c5ccccc54)s2)C(=O)N2CCC[C@@H]32)o1` (stereo partly drawn) [Compound 11, 5-((S)-2-(4-fluorophenethyl)-3-(5-methyl-1,3,4-oxadiazol-2-yl)-5-oxo-7,8,9,9a-tetrahydro-5H-pyrido[2,3-a]pyrrolizin-4-yl)-N-(3-hydroxy-2,3-dihydro-1H-inden-1-yl)thiophene-2-carboxamide], in assay [1], the 50% effective concentration (EC50) is 48.1 nM. On the same count and under the same terms, for `Cc1nc(C)c(-c2c(CCc3ccc(F)cc3)nc3c(c2-c2ccc(C(=O)NCc4ccc(F)c(F)c4)s2)C(=O)N2CCC[C@@H]32)o1` [Compound 34, (S)—N-(3,4-difluorobenzyl)-5-(3-(2,4-dimethyloxazol-5-yl)-2-(4-fluorophenethyl)-5-oxo-7,8,9,9a-tetrahydro-5H-pyrido[2,3-a]pyrrolizin-4-yl)thiophene-2-carboxamide] the value was 20.5 nM. Still for that read-out and setting: for `COc1cccc(CNc2nccc3cc(-c4c5c(nc(CCC6CCOCC6)c4-c4nnc(C)o4)[C@@H]4CCCN4C5=O)sc23)c1` [Compound 73] the value was 2200 nM; for `Cc1cnc(-c2c(CCc3ccc(F)cc3)nc3c(c2-c2ccc(C(=O)NCc4ccc(F)c(F)c4)s2)C(=O)N2CCC[C@@H]32)o1` [Compound 14, N-(3,4-difluorophenyl)methyl-5-{(2S)-11-[2-(p-fluorophenyl)ethyl]-10-(5-methyl-1,3-oxazol-2-yl)-7-oxo-6,12-diazatricyclo[6.4.0.0^2,6]dodeca-1(8),9,11-trien-9-yl)-2-thenamide], 12.6 nM; for `Cc1nnc(-c2c(CCc3ccc(F)cc3)nc3c(c2-c2ccc(C(=O)NCc4ccc(F)c(F)c4)s2)C(=O)N2CCCC[C@@H]32)o1` [Compound 20], 79 nM. Same read-out and setting: for `Cc1nnc(-c2c(CCOC(C)C)nc3c(c2-c2ccc(C(=O)NCc4ccc(F)c(F)c4)s2)C(=O)N2CCC[C@@H]32)o1` [Compound 35, (S)—N-(3,4-difluorobenzyl)-5-(2-(2-isopropoxyethyl)-3-(5-methyl-1,3,4-oxadiazol-2-yl)-5-oxo-7,8,9,9a-tetrahydro-5H-pyrido[2,3-a]pyrrolizin-4-yl)thiophene-2-carboxamide] the value was above 100 nM; for `Cc1nnc(-c2c(CCc3cnn(C)c3)nc3c(c2-c2ccc(C(=O)NCc4ccc(F)c(F)c4)s2)C(=O)N2CCC[C@@H]32)o1` [Compound 43, (S)—N-(3,4-difluorobenzyl)-5-(3-(5-methyl-1,3,4-oxadiazol-2-yl)-2-(2-(1-methyl-1H-pyrazol-4-yl)ethyl)-5-oxo-7,8,9,9a-tetrahydro-5H-pyrido[2,3-a]pyrrolizin-4-yl)thiophene-2-carboxamide], 1880 nM.
